Consider 45 compounds from ChEMBL document CHEMBL5308504, “Tm Shift (DSF) assay results for EUbOPEN Chemogenomics Library” (2023).

Values joined by “and” are separate entries in the source; they are usually repeats but may differ in a detail not shown here. Identical values can stand only once.

In experiment [1] the target is T1, Peregrin (Homo sapiens) (UniProt P55201).
T1 sequence (whole entry): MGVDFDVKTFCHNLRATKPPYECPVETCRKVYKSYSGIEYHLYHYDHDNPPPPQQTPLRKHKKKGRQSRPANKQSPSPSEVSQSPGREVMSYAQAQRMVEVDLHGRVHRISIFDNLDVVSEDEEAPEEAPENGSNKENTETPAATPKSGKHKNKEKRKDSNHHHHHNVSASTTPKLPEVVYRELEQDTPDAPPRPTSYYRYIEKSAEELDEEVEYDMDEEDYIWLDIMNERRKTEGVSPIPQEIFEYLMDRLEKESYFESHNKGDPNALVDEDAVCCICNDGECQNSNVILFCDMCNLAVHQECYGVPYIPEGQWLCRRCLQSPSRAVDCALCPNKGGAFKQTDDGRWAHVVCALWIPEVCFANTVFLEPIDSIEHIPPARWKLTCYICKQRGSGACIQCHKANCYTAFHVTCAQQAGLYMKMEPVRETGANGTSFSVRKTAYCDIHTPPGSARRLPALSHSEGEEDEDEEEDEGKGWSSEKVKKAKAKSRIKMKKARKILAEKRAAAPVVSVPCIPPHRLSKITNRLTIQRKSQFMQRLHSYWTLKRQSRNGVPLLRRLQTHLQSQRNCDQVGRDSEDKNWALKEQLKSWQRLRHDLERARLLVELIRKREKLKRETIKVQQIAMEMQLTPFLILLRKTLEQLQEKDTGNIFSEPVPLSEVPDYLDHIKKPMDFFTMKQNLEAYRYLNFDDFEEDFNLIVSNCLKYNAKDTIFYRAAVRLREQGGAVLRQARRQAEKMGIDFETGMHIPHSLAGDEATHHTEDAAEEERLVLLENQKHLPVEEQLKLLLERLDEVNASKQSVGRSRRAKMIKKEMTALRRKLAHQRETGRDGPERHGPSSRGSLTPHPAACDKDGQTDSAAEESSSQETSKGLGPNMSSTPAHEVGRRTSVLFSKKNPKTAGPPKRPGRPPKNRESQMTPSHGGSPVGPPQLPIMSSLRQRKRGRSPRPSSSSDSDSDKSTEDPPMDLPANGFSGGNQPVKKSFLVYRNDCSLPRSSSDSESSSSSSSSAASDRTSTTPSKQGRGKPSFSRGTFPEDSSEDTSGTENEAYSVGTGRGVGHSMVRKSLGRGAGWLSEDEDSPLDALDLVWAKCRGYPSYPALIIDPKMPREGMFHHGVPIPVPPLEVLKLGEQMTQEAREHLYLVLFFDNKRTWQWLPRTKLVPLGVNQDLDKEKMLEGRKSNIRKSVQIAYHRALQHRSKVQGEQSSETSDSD
The conditions noted are these: Compound concentration 20.0 uM, Protein concentration 2.0 uM, Result type QC Liability.

Experiment [2] addresses Fibroblast growth factor receptor 3 (Homo sapiens) (UniProt P22607). The conditions noted are these: Compound concentration 20.0 uM, Protein concentration 2.0 uM, Result type QC Liability.
Description: Thermal Shift Assay. Domain: start/stop: P449-E759

Fibroblast growth factor receptor 3 (Homo sapiens), sequence (P22607 23-806 limits assumed): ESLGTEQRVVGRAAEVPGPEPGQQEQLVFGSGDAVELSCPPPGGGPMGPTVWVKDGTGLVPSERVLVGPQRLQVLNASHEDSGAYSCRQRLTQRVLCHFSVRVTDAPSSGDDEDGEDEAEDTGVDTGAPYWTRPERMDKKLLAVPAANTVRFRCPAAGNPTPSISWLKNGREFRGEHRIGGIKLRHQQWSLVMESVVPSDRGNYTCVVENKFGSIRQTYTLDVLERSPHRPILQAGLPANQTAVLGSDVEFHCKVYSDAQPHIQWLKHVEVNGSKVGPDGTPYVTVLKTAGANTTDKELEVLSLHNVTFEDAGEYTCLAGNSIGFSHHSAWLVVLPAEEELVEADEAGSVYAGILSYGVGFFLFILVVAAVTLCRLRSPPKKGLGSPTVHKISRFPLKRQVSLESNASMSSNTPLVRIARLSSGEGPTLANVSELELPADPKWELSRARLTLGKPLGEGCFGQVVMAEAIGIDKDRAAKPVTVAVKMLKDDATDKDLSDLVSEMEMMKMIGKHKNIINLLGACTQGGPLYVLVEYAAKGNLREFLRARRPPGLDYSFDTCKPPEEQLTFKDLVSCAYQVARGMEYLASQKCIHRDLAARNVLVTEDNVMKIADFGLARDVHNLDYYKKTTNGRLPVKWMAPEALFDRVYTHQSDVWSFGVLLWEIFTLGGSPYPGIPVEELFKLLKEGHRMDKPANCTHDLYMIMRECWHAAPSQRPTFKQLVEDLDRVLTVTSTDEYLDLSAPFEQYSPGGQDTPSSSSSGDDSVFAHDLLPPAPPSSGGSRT

For orientation: ΔTm means the change in melting temperature against a reference sample. Take `COc1cc(Cl)c(C(=O)N[C@@H](CN[C@H]2CC[C@@H](N)CC2)Cc2ccc(C#N)cc2)cc1-c1ccc(CN[C@H](C)c2ccc(C)cc2)o1`: the ΔTm in experiment [1] is -2.44 °C; in experiment [2], 1.14 °C.

Regarding `CC[C@H]1[C@@H](O)[C@@H]2[C@H](CC[C@]3(C)[C@@H]([C@H](C)CCC(=O)O)CC[C@@H]23)[C@@]2(C)CC[C@@H](O)C[C@@H]12`, the thermal shift (ΔTm) in experiment [1] is -1.33 °C; in experiment [2], 0 °C.

As for `CC[C@@H](C(=O)OC)n1c(=O)c2ccccc2n(Cc2cn(C)c3cccc(C)c23)c1=O`, the results for the ΔTm in experiment [1] and in experiment [2] were -3.31 °C and 1.21 °C, respectively.

Regarding `CCOc1ccc(S(=O)(=O)Nc2ccc(Cl)cc2C#Cc2cnc(C(=O)O)cc2OC)c2ncccc12`, the ΔTm is -1.33 °C in experiment [1] and -5.78 °C in experiment [2].

For the compound `CN1CCN(c2ccnc(NCCc3ccccc3)n2)CC1`, the ΔTm in experiment [1] is -1.12 °C; in experiment [2], 0.59 °C.

As for `O=C(O)/C=C/c1ccc(Cn2ccnc2)cc1`, the figures for the shift in melting temperature (ΔTm) in experiment [1] and in experiment [2] were -2.72 °C and 0.54 °C, respectively.

Take `Cc1c(N2CCCC2)nc2ccc(Br)cc2c1C(=O)NC[C@H](CCC(=O)O)c1ccccc1Cl`: the ΔTm in experiment [1] is -3.23 °C and -0.94 °C; in experiment [2] it was 0.24 °C and 1.08 °C.

Take `Clc1ccc(-c2nc3sccn3c2/C=N/OCc2ccc(Cl)c(Cl)c2)cc1`: the values for the ΔTm in experiment [1] and in experiment [2] were -0.92 °C and 0.55 °C, respectively.

Take `O=C1Nc2ccc(C(=O)c3ccco3)cc2C1=Cc1cc(Cl)c(O)c(Cl)c1`: the figures for the ΔTm in experiment [1] and in experiment [2] were 0.59 °C and 2.35 °C, respectively.

On to `C[C@@H]1COCCN1c1cc(=O)n2c(n1)N(Cc1cncc(Cl)c1)[C@H](C(F)(F)F)CC2`, for which the ΔTm in experiment [1] is -3.92 °C; in experiment [2], 0.57 °C.

Consider `O[C@]1(C(F)(F)F)CCCC[C@H]1Nc1ccc(F)cc1`, for which the thermal shift (ΔTm) was determined as 0.24 °C in experiment [1] and 0.58 °C in experiment [2].

Regarding `Cc1cc(Cn2c(N3CC4(CNC4)C3)nc3c(N4CCN(C)CC4)cc(Cl)cc32)cc(C)c1F`, the ΔTm in experiment [1] was -3.49 °C; in experiment [2], 0.86 °C.

With `CS(=O)(=O)c1cc(C2(NC(=O)c3cncc4c3cnn4-c3ccc(F)cc3)CC2)ccn1`, the ΔTm in experiment [1] is -2.04 °C; in experiment [2] it was 0.85 °C.

Consider `NC(=O)c1ccc(-c2nc(-c3ccc4c(c3)OCCO4)c(-c3ccccn3)[nH]2)cc1`, for which the thermal shift (ΔTm) turned out to be 0.84 °C in experiment [1] and 1.37 °C in experiment [2].

Consider `CCc1nc(-c2cccc(C)c2)c(-c2ccnc(NC(=O)c3ccccc3)c2)s1`, for which the shift in melting temperature (ΔTm) in experiment [1] is -2.72 °C; in experiment [2] it was -0.84 °C.

Consider `O=C(NC[C@@H]1[C@H]2CN(C(=O)OCc3cc(C(F)(F)F)cc(C(F)(F)F)c3)C[C@@H]12)c1ccc2[nH]nnc2c1`, for which the values for the thermal shift (ΔTm) in experiment [1] and in experiment [2] were -0.49 °C and 1.51 °C, respectively.

`CCN(CC)C/C=C/C(=O)Nc1cc2c(Nc3ccc(F)c(Cl)c3)ncnc2cc1OCC1CC1`: the ΔTm was -0.42 °C in experiment [1] and 1.12 °C in experiment [2].

Regarding `CC(C)c1nc2c(c3c1[C@H](c1ccc(C(F)(F)F)cc1)OC31CCOCC1)[C@H](O)CC(C)(C)C2`, the shift in melting temperature (ΔTm) in experiment [1] is -3.09 °C; in experiment [2] it was 0.52 °C.

For the compound `Cc1cc2c(-c3ccco3)cnc(N[C@@H]3CCN(C)C[C@H]3C(=O)NC3CCCCC3)c2[nH]c1=O`, the ΔTm was -0.68 °C in experiment [1] and 0.65 °C in experiment [2].

With `CNC(=O)c1ccc(C)c(-n2c(C)cc(OCc3ccc(F)cc3F)c(Br)c2=O)c1`, the shift in melting temperature (ΔTm) in experiment [1] is -1.84 °C; in experiment [2] it was -1.16 °C.

As to `O=C(Cc1ccccc1)Nc1nnc(N2C[C@H]3C[C@@H]2CN3c2cccnn2)s1`, the ΔTm in experiment [1] is -0.88 °C; in experiment [2] it was 0.46 °C.

For `Cc1cnc(-c2cnc(NCCNc3ccc(C#N)cn3)nc2-c2ccc(Cl)cc2Cl)[nH]1`, the shift in melting temperature (ΔTm) in experiment [1] was -2.19 °C; in experiment [2], 1.41 °C.

Consider `CSc1ccc(C(=O)/C=C/c2cc(C)c(OC(C)(C)C(=O)O)c(C)c2)cc1`, for which the ΔTm in experiment [1] was -1.39 °C; in experiment [2], 1.12 °C.

Turning to `COc1cc2nc([C@@H]3CCCS(=O)(=O)C3)n(C)c2cc1NC(=O)c1cccc(C(C)(F)F)n1`, the results for the shift in melting temperature (ΔTm) in experiment [1] and in experiment [2] were -2.41 °C and 0.66 °C, respectively.

Consider `Cc1nnc2n1-c1sc3c(c1C(c1ccccc1Cl)=NC2)C[C@@H](C(=O)N1CCOCC1)C3`, for which the ΔTm was -1.96 °C in experiment [1] and 0.58 °C in experiment [2].

Consider `O=C(O)CCCCN(CCc1ccccc1OCc1ccc(CCc2ccccc2)cc1)Cc1ccc(C(=O)O)cc1`, for which the shift in melting temperature (ΔTm) in experiment [1] is -2.23 °C; in experiment [2], 0.8 °C.

On to `N#CN1CC[C@H](C(=O)Nc2nc3c(s2)CN(C(=O)CN=[N+]=[N-])CC3)C1`, for which the shift in melting temperature (ΔTm) in experiment [1] was -1.51 °C; in experiment [2], 1.09 °C.

In the case of `CC(C=CC1=C(C)CCCC1(C)C)=CC=CC(C)=CC(=O)O`, the ΔTm in experiment [1] is -2.28 °C; in experiment [2], 0.68 °C.

On to `CSc1ccc(C[C@@H](C)C(=O)O)cc1Nc1nc(N2CC[C@H](N(C)C)C2)cc(C(F)F)c1C#N`, for which the ΔTm in experiment [1] was -2.68 °C; in experiment [2] it was 0.35 °C.

Consider `Cc1nnc2n1-c1sc3c(c1C(c1ccccc1Cl)=NC2)C[C@H](C(=O)N1CCOCC1)C3`, for which the ΔTm in experiment [1] was -1.51 °C; in experiment [2], 0.59 °C.

As for `C[C@@H]1CCNC(=O)c2cc3ccc(C(=O)Nc4nc5ccccc5n4CCCN(C)C)cc3n21`, the ΔTm in experiment [1] was -2.35 °C; in experiment [2] it was 2.76 °C.

Turning to `N#Cc1ccc(COc2ccc(Br)cc2CNCCO)cn1`, the figures for the shift in melting temperature (ΔTm) in experiment [1] and in experiment [2] were 0.18 °C and 0.63 °C, respectively.

As to `O=C(Nc1ccc(N2CCC(C(=O)N3CCOCC3)CC2)cc1)c1cnc(Oc2ccccc2)nc1`, the thermal shift (ΔTm) in experiment [1] is -2.41 °C; in experiment [2] it was 0.5 °C.

For `CO[C@H](C)CN1CC[C@@]2(C)c3ccc(O)cc3C[C@@H]1C2(C)C`, the ΔTm in experiment [1] was -2.03 °C; in experiment [2], 0.41 °C.

Consider `CCS(=O)(=O)Nc1cccc(Oc2cc(F)cc(Nc3ccc(I)cc3F)c2NS(=O)(=O)C2CC2)c1`, for which the ΔTm is -1.34 °C in experiment [1] and -1.54 °C in experiment [2].

As to `CC(C)N(CCCCOCC(=O)O)c1cnc(-c2ccccc2)c(-c2ccccc2)n1`, the ΔTm was -4.18 °C in experiment [1] and -0.51 °C in experiment [2].

As to `COc1cc2ncnc(Nc3ccc(F)c(Cl)c3)c2cc1OCCN(C)C[C@H](C)O`, the results for the ΔTm in experiment [1] and in experiment [2] were -1.85 °C and 1.03 °C, respectively.

Regarding `Cn1cnc(Cn2ccc3ccc(CNCc4[nH]c5ccccc5c4[C@H]4NC(=O)c5ccc(O)cc54)cc32)c1`, the figures for the ΔTm in experiment [1] and in experiment [2] were -2.61 °C and 0.57 °C, respectively.

In the case of `CCn1c(-c2nonc2N)nc2ccccc21`, the figures for the thermal shift (ΔTm) in experiment [1] and in experiment [2] were -1.24 °C and 0.81 °C, respectively.

Turning to `CN1C(=O)c2ccccc2N(C)c2nc(Nc3cnn(C4CCNCC4)c3)ncc21`, the results for the thermal shift (ΔTm) in experiment [1] and in experiment [2] were -0.9 °C and 6.58 °C, respectively.

As to `N=C(N)NCCC[C@H](NC(=O)CC1(CC(=O)N2CCN(C(c3ccccc3)c3ccccc3)CC2)CCCC1)C(=O)NCc1ccccc1`, the ΔTm in experiment [1] was -4.91 °C; in experiment [2] it was 0.22 °C.

`CC#CC(=O)N1CCN(c2nc(-c3ccc(Oc4ccccc4)cc3)c(C(N)=O)s2)CC1`: the ΔTm in experiment [1] was -1.23 °C; in experiment [2], -1.02 °C.

Regarding `COc1ccc(-c2csc(NC(=O)[C@H]3CCCCN3S(=O)(=O)c3ccc(C)cc3)n2)cc1`, the ΔTm in experiment [1] is -0.84 °C; in experiment [2] it was 0.16 °C.

Turning to `C=CC1C[C@]1(NC(=O)[C@@H]1C[C@@H](Oc2cc(-c3csc(NC(=O)C(C)C)n3)nc3c(Br)c(OC)ccc23)CN1C(=O)[C@@H](NC(=O)OC1CCCC1)C(C)(C)C)C(=O)O` (stereo not given in full), the ΔTm in experiment [1] was -2.59 °C; in experiment [2], 1.41 °C.

As for `O=C(Nc1ccc(-n2nc(-c3cccnc3)cc2C(F)(F)F)cn1)c1ccc(-c2ccccc2)c(F)c1`, the ΔTm in experiment [1] is -2.22 °C; in experiment [2], 0.42 °C.
